Key:
[1] = tested on: PBMC (Homo sapiens); assay: Cytotoxic concentration of compound determined by the […] exclusion staining method in PBMC by test II
[2] = tested on: MT4; assay: Cytotoxic concentration of compound required to reduce the viability of mock infected MT-4 cells on the MTT assay in test I; assay type: functional; conditions: Homo sapiens
[3] = Selectivity index determined for CC50 (test II) to EC50 x 10e3; assay type: functional
[4] = Selectivity index determined for CC50 (test I) to EC50 x 10e3; assay type: functional

Which results are given for `NCCCC[C@@H]1NC(=O)[C@H](CCCN=C(N)N)NC(=O)[C@H](Cc2ccc(O)cc2)NC(=O)[C@@H](NC(=O)[C@@H](NC(=O)[C@H](CCCN=C(N)N)NC(=O)[C@@H](N)CCCNC(N)=O)c2ccc3ccccc3c2)CSSC[C@@H](C(=O)N[C@@H](CCCN=C(N)N)C(N)=O)NC(=O)[C@H](CCCNC(N)=O)NC(=O)[C@H](CCCN=C(N)N)NC(=O)[C@H](Cc2ccc(O)cc2)NC(=O)[C@@H]2CCCN2C(=O)[C@@H](CCCNC(N)=O)NC1=O`?
CC50 [1]: 500 µM; CC50 [2]: > 100 µM

What does the source list for `NCCCC[C@H]1NC(=O)[C@H](CCCN=C(N)N)NC(=O)[C@@H](Cc2ccc(O)cc2)NC(=O)[C@H](NC(=O)[C@@H](NC(=O)[C@H](CCCN=C(N)N)NC(=O)[C@@H](N)CCCN=C(N)N)c2ccc3ccccc3c2)CSSC[C@H](C(=O)N[C@@H](CCCN=C(N)N)C(=O)O)NC(=O)[C@H](CCCNC(N)=O)NC(=O)[C@H](CCCNC(N)=O)NC(=O)[C@H](Cc2ccc(O)cc2)NC(=O)[C@H]2CCCN2C(=O)[C@H](CCCNC(N)=O)NC1=O`?
SI [3]: > 100; SI [4]: > 13

For `NCCCC[C@@H]1NC(=O)[C@H](CCCNC(N)=O)NC(=O)[C@H](Cc2ccc(O)cc2)NC(=O)[C@@H](NC(=O)[C@@H](NC(=O)[C@H](CCCN=C(N)N)NC(=O)[C@@H](N)CCCN=C(N)N)c2ccc3ccccc3c2)CSSC[C@@H](C(=O)N[C@@H](CCCN=C(N)N)C(=O)O)NC(=O)[C@H](CCCNC(N)=O)NC(=O)[C@H](CCCN=C(N)N)NC(=O)[C@H](Cc2ccc(O)cc2)NC(=O)[C@@H]2CCCN2C(=O)[C@@H](CCCNC(N)=O)NC1=O`, which CC50 [1] is on record?
Its CC50 is over 800 µM.

And the CC50 [2]?
The CC50 was over 100 µM.

For `Nc1ccn([C@H]2CC[C@@H](CO)O2)c(=O)n1` [ZALCITABINE], which CC50 [2] is on record?
The CC50 was 14 µM.

What about the SI [4] of the same molecule?
The SI was 0.16.

Which results are given for `NCCCC[C@@H]1NC(=O)[C@H](CCCN=C(N)N)NC(=O)[C@H](Cc2ccc(O)cc2)NC(=O)[C@@H](NC(=O)[C@@H](NC(=O)[C@H](CCCN=C(N)N)NC(=O)[C@@H](N)CCCN=C(N)N)c2ccc3ccccc3c2)CSSC[C@@H](C(=O)N[C@@H](CCCN=C(N)N)C(=O)O)NC(=O)[C@H](CCCNC(N)=O)NC(=O)[C@H](CCCNC(N)=O)NC(=O)[C@H](Cc2ccc(O)cc2)NC(=O)[C@@H]2CCCN2C(=O)[C@@H](CCCNC(N)=O)NC1=O`?
CC50 [1]: > 800 µM; CC50 [2]: > 100 µM

For `NCCCC[C@@H]1NC(=O)[C@H](CCCN=C(N)N)NC(=O)[C@H](Cc2ccc(O)cc2)NC(=O)[C@@H](NC(=O)[C@@H](NC(=O)[C@H](CCCN=C(N)N)NC(=O)[C@@H](N)CCCNC(N)=O)c2ccc3ccccc3c2)CSSC[C@@H](C(=O)N[C@@H](CCCN=C(N)N)C(=O)O)NC(=O)[C@H](CCCNC(N)=O)NC(=O)[C@H](CCCN=C(N)N)NC(=O)[C@H](Cc2ccc(O)cc2)NC(=O)[C@@H]2CCCN2C(=O)[C@@H](CCCNC(N)=O)NC1=O`, which CC50 [1] is on record?
Its CC50 is over 800 µM.

And the CC50 [2]?
Its CC50 is over 100 µM.

Which CC50 [1] does the source give for `NCCCC[C@@H]1NC(=O)[C@H](CCCN=C(N)N)NC(=O)[C@H](Cc2ccc(O)cc2)NC(=O)[C@@H](NC(=O)[C@@H](NC(=O)[C@H](CCCN=C(N)N)NC(=O)[C@@H](N)CCCNC(N)=O)c2ccc3ccccc3c2)CSSC[C@@H](C(=O)N[C@@H](CCCN=C(N)N)C(N)=O)NC(=O)[C@H](CCCNC(N)=O)NC(=O)[C@H](CCCNC(N)=O)NC(=O)[C@H](Cc2ccc(O)cc2)NC(=O)[C@@H]2CCCN2C(=O)[C@@H](CCCCN)NC1=O` here?
The CC50 was 470 µM.

What about the CC50 [2] of the same molecule?
Its CC50 is over 100 µM.

For `NCCCC[C@@H]1NC(=O)[C@H](CCCNC(N)=O)NC(=O)[C@H](Cc2ccc(O)cc2)NC(=O)[C@@H](NC(=O)[C@@H](NC(=O)[C@H](CCCN=C(N)N)NC(=O)[C@@H](N)CCCN=C(N)N)c2ccc3ccccc3c2)CSSC[C@@H](C(=O)N[C@@H](CCCN=C(N)N)C(=O)O)NC(=O)[C@H](CCCNC(N)=O)NC(=O)[C@H](CCCN=C(N)N)NC(=O)[C@H](Cc2ccc(O)cc2)NC(=O)[C@@H]2CCCN2C(=O)[C@@H](CCCCN)NC1=O`, which CC50 [1] is on record?
The CC50 was 510 µM.

What about the CC50 [2] of the same molecule?
The CC50 was over 80 µM.

Which results are given for `NCCCC[C@@H]1NC(=O)[C@H](CCCN=C(N)N)NC(=O)[C@H](Cc2ccc(O)cc2)NC(=O)[C@@H](NC(=O)[C@@H](NC(=O)[C@H](CCCN=C(N)N)NC(=O)[C@@H](N)CCCNC(N)=O)c2ccc3ccccc3c2)CSSC[C@@H](C(=O)N[C@@H](CCCN=C(N)N)C(=O)O)NC(=O)[C@H](CCCNC(N)=O)NC(=O)[C@H](CCCNC(N)=O)NC(=O)[C@H](Cc2ccc(O)cc2)NC(=O)[C@@H]2CCCN2C(=O)[C@@H](CCCCN)NC1=O`?
CC50 [1]: > 800 µM; CC50 [2]: > 100 µM

For `NCCCC[C@@H]1NC(=O)[C@H](CCCN=C(N)N)NC(=O)[C@H](Cc2ccc(O)cc2)NC(=O)[C@@H](NC(=O)[C@@H](NC(=O)[C@H](CCCN=C(N)N)NC(=O)[C@@H](N)CCCN=C(N)N)c2ccc3ccccc3c2)CSSC[C@@H](C(=O)N[C@@H](CCCN=C(N)N)C(N)=O)NC(=O)[C@H](CCCNC(N)=O)NC(=O)[C@H](CCCNC(N)=O)NC(=O)[C@H](Cc2ccc(O)cc2)NC(=O)[C@@H]2CCCN2C(=O)[C@@H](CCCNC(N)=O)NC1=O`, which CC50 [1] is on record?
The CC50 was 680 µM.

And the CC50 [2]?
The CC50 was over 100 µM.

Which results are given for `NCCCC[C@@H]1NC(=O)[C@H](CCCNC(N)=O)NC(=O)[C@H](Cc2ccc(O)cc2)NC(=O)[C@@H](NC(=O)[C@@H](NC(=O)[C@H](CCCN=C(N)N)NC(=O)[C@@H](N)CCCNC(N)=O)c2ccc3ccccc3c2)CSSC[C@@H](C(=O)N[C@@H](CCCN=C(N)N)C(=O)O)NC(=O)[C@H](CCCNC(N)=O)NC(=O)[C@H](CCCN=C(N)N)NC(=O)[C@H](Cc2ccc(O)cc2)NC(=O)[C@@H]2CCCN2C(=O)[C@@H](CCCCN)NC1=O`?
CC50 [1]: > 800 µM; CC50 [2]: > 100 µM

Which results are given for `NCCCC[C@@H]1NC(=O)[C@H](CCCNC(N)=O)NC(=O)[C@H](Cc2ccc(O)cc2)NC(=O)[C@@H](NC(=O)[C@@H](NC(=O)[C@H](CCCN=C(N)N)NC(=O)[C@@H](N)CCCN=C(N)N)c2ccc3ccccc3c2)CSSC[C@@H](C(=O)N[C@@H](CCCN=C(N)N)C(N)=O)NC(=O)[C@H](CCCNC(N)=O)NC(=O)[C@H](CCCN=C(N)N)NC(=O)[C@H](Cc2ccc(O)cc2)NC(=O)[C@@H]2CCCN2C(=O)[C@@H](CCCNC(N)=O)NC1=O`?
CC50 [1]: > 800 µM; CC50 [2]: > 100 µM

With `NCCCC[C@@H]1NC(=O)[C@H](CCCN=C(N)N)NC(=O)[C@H](Cc2ccc(O)cc2)NC(=O)[C@@H](NC(=O)[C@@H](NC(=O)[C@H](CCCN=C(N)N)NC(=O)[C@@H](N)CCCN=C(N)N)c2ccc3ccccc3c2)CSSC[C@@H](C(=O)N[C@@H](CCCN=C(N)N)C(N)=O)NC(=O)[C@H](CCCNC(N)=O)NC(=O)[C@H](CCCN=C(N)N)NC(=O)[C@H](Cc2ccc(O)cc2)NC(=O)[C@@H]2CCCN2C(=O)[C@@H](CCCNC(N)=O)NC1=O` as the molecule, how does the CC50 [1] read?
The CC50 was 98 µM.

What about the CC50 [2] of the same molecule?
The CC50 was over 100 µM.

Which SI [4] does the source give for `NCCCC[C@@H]1NC(=O)[C@@H](CCCCN)NC(=O)[C@H](CCCN=C(N)N)NC(=O)[C@@H](Cc2ccc(O)cc2)NC(=O)[C@H](NC(=O)[C@@H](NC(=O)[C@H](CCCN=C(N)N)NC(=O)[C@@H](N)CCCN=C(N)N)c2ccc3ccccc3c2)CSSC[C@H](C(=O)N[C@@H](CCCN=C(N)N)C(N)=O)NC(=O)[C@H](CCCNC(N)=O)NC(=O)[C@H](CCCN=C(N)N)NC(=O)[C@H](Cc2ccc(O)cc2)NC(=O)[C@H]2CCCN2C1=O` here?
Its SI is 0.14.

With `NCCCC[C@@H]1NC(=O)[C@H](CCCN=C(N)N)NC(=O)[C@H](Cc2ccc(O)cc2)NC(=O)[C@@H](NC(=O)[C@@H](NC(=O)[C@H](CCCN=C(N)N)NC(=O)[C@@H](N)CCCN=C(N)N)c2ccc3ccccc3c2)CSSC[C@@H](C(=O)N[C@@H](CCCN=C(N)N)C(N)=O)NC(=O)[C@H](CCCNC(N)=O)NC(=O)[C@H](CCCN=C(N)N)NC(=O)[C@H](Cc2ccc(O)cc2)NC(=O)[C@@H]2CCCN2C(=O)[C@@H](CCCCN)NC1=O` as the molecule, how does the CC50 [2] read?
Its CC50 is 10 µM.

Which CC50 [1] does the source give for `NCCCC[C@@H]1NC(=O)[C@H](CCCN=C(N)N)NC(=O)[C@H](Cc2ccc(O)cc2)NC(=O)[C@@H](NC(=O)[C@@H](NC(=O)[C@H](CCCN=C(N)N)NC(=O)[C@@H](N)CCCN=C(N)N)c2ccc3ccccc3c2)CSSC[C@@H](C(=O)N[C@@H](CCCN=C(N)N)C(=O)O)NC(=O)[C@H](CCCNC(N)=O)NC(=O)[C@H](CCCN=C(N)N)NC(=O)[C@H](Cc2ccc(O)cc2)NC(=O)[C@@H]2CCCN2C(=O)[C@@H](CCCNC(N)=O)NC1=O` here?
The CC50 was 110 µM.

And the CC50 [2]?
The CC50 was over 80 µM.

For `NCCCC[C@@H]1NC(=O)[C@H](CCCNC(N)=O)NC(=O)[C@H](Cc2ccc(O)cc2)NC(=O)[C@@H](NC(=O)[C@@H](NC(=O)[C@H](CCCN=C(N)N)NC(=O)[C@@H](N)CCCN=C(N)N)c2ccc3ccccc3c2)CSSC[C@@H](C(=O)N[C@@H](CCCN=C(N)N)C(N)=O)NC(=O)[C@H](CCCNC(N)=O)NC(=O)[C@H](CCCN=C(N)N)NC(=O)[C@H](Cc2ccc(O)cc2)NC(=O)[C@@H]2CCCN2C(=O)[C@@H](CCCCN)NC1=O`, which CC50 [1] is on record?
Its CC50 is 410 µM.

And the CC50 [2]?
The CC50 was over 100 µM.

With `NCCCC[C@@H]1NC(=O)[C@H](CCCNC(N)=O)NC(=O)[C@H](Cc2ccc(O)cc2)NC(=O)[C@@H](NC(=O)[C@@H](NC(=O)[C@H](CCCN=C(N)N)NC(=O)[C@@H](N)CCCN=C(N)N)c2ccc3ccccc3c2)CSSC[C@@H](C(=O)N[C@@H](CCCN=C(N)N)C(=O)O)NC(=O)[C@H](CCCNC(N)=O)NC(=O)[C@H](CCCNC(N)=O)NC(=O)[C@H](Cc2ccc(O)cc2)NC(=O)[C@@H]2CCCN2C(=O)[C@@H](CCCCN)NC1=O` as the molecule, how does the CC50 [1] read?
The CC50 was over 800 µM.

What about the CC50 [2] of the same molecule?
The CC50 was over 100 µM.

For `NCCCC[C@@H]1NC(=O)[C@H](CCCNC(N)=O)NC(=O)[C@H](Cc2ccc(O)cc2)NC(=O)[C@@H](NC(=O)[C@@H](NC(=O)[C@H](CCCN=C(N)N)NC(=O)[C@@H](N)CCCN=C(N)N)c2ccc3ccccc3c2)CSSC[C@@H](C(=O)N[C@@H](CCCN=C(N)N)C(N)=O)NC(=O)[C@H](CCCNC(N)=O)NC(=O)[C@H](CCCNC(N)=O)NC(=O)[C@H](Cc2ccc(O)cc2)NC(=O)[C@@H]2CCCN2C(=O)[C@@H](CCCCN)NC1=O`, which CC50 [1] is on record?
Its CC50 is over 400 µM.

And the CC50 [2]?
Its CC50 is over 100 µM.

For `NCCCC[C@@H]1NC(=O)[C@H](CCCNC(N)=O)NC(=O)[C@H](Cc2ccc(O)cc2)NC(=O)[C@@H](NC(=O)[C@@H](NC(=O)[C@H](CCCN=C(N)N)NC(=O)[C@@H](N)CCCNC(N)=O)c2ccc3ccccc3c2)CSSC[C@@H](C(=O)N[C@@H](CCCN=C(N)N)C(N)=O)NC(=O)[C@H](CCCNC(N)=O)NC(=O)[C@H](CCCN=C(N)N)NC(=O)[C@H](Cc2ccc(O)cc2)NC(=O)[C@@H]2CCCN2C(=O)[C@@H](CCCCN)NC1=O`, which CC50 [1] is on record?
Its CC50 is 350 µM.

And the CC50 [2]?
Its CC50 is over 100 µM.

Reference: ChEMBL document CHEMBL1134146, “Development of specific CXCR4 inhibitors possessing high selectivity indexes as well as complete stability in serum based on an anti-HIV peptide T140” (Bioorg Med Chem Lett, 2001)
